Results published in ChEMBL document CHEMBL4425144, “Discovery and Structural Optimization of N5-Substituted 6,7-Dioxo-6,7-dihydropteridines as Potent and Selective Epidermal Growth Factor Receptor (EGFR) Inhibitors against L858R/T790M Resistance Mutation” (J Med Chem, 2016).
Converted amounts (≈) assume the structure as drawn.

Key:
[1] = biological target: Epidermal growth factor receptor (Homo sapiens, UniProt P00533); experiment: Inhibition of wild type EGFR kinase domain (unknown origin) expressed using baculovirus expression system incubated for 1 hr using Poly(Glu,Tyr) 4:1 by ELISA method
Epidermal growth factor receptor (Homo sapiens, UniProt P00533), sequence (P00533 whole entry, the tested form may be a part): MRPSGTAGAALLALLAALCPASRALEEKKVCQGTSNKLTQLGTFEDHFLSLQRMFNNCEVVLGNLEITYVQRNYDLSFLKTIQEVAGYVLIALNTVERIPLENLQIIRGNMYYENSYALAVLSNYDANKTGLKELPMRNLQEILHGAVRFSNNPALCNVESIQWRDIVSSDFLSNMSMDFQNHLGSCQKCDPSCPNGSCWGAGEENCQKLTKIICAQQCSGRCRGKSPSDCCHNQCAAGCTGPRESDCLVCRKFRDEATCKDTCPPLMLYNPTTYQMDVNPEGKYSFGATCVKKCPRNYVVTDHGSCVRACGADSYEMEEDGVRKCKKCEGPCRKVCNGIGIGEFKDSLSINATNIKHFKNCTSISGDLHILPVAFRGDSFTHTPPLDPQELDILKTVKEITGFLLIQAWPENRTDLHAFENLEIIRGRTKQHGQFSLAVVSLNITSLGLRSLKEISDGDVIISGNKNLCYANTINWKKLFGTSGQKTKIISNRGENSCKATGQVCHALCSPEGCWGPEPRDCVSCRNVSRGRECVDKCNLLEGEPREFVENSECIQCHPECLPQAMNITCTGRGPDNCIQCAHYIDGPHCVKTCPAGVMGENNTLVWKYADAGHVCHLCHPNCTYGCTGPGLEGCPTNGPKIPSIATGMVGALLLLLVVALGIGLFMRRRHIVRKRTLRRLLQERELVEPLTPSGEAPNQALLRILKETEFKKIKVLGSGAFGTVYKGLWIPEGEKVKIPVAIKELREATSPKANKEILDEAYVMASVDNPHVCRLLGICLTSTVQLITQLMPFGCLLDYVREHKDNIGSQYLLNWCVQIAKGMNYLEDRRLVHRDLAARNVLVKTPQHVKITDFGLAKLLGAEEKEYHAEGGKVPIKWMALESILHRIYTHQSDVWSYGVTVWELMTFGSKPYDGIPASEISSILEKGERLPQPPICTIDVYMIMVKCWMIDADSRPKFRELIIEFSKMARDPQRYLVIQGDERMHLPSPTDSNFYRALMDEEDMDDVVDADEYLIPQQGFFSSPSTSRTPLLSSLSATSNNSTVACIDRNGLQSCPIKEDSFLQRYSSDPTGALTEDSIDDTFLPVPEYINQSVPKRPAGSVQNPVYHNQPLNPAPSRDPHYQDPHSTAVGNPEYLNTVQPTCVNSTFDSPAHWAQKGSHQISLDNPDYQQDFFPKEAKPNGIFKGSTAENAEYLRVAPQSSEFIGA

[2] = biological target: Epidermal growth factor receptor (Homo sapiens, UniProt P00533, L858R/T790M); experiment: Inhibition of EGFR kinase domain L858R/T790M mutant (unknown origin) expressed using baculovirus expression system incubated for 1 hr using Poly(Glu,Tyr) 4:1 by ELISA method
Epidermal growth factor receptor (Homo sapiens, UniProt P00533, L858R/T790M), sequence (P00533 25-1210 T790M/L858R limits assumed): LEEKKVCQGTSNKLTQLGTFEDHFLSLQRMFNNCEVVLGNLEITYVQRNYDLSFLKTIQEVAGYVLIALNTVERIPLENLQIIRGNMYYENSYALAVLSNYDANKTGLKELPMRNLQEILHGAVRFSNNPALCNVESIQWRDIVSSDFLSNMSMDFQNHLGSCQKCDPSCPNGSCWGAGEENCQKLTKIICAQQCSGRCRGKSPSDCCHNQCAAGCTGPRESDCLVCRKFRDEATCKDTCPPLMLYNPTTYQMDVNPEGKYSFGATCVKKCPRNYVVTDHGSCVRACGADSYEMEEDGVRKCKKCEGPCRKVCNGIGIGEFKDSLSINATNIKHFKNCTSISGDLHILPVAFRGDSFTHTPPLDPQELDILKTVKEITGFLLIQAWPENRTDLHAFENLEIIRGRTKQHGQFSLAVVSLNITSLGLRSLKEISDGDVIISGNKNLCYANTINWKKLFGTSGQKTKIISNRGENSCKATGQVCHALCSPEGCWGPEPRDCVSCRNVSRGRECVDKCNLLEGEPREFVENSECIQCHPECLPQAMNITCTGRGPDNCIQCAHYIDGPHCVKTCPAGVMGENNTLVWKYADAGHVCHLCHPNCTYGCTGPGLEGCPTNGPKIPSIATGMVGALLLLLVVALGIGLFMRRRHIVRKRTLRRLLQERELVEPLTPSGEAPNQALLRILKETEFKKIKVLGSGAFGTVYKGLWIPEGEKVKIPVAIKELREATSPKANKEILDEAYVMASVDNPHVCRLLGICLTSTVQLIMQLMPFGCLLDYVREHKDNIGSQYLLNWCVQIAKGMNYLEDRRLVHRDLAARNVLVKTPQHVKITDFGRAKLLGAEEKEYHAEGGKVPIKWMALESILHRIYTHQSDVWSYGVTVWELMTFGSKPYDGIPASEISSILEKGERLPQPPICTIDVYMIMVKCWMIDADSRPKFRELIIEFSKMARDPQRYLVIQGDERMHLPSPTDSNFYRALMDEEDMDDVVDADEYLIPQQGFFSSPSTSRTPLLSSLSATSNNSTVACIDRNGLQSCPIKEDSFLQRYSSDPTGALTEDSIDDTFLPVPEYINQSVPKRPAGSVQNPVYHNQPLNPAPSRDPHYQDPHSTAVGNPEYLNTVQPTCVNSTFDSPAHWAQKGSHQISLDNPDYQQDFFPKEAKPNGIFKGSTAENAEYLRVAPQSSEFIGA

[3] = Dissociation constant, pKa of the compound by Sirius T3 based assay; assay type: physicochemical
A-431 [4] = experiment: Antiproliferative activity against human A431 cells incubated for 72 hrs by SRB assay; assay type: functional, cell-based; settings: A-431, 72 h
NCI-H1975 = experiment: Antiproliferative activity against human NCI-H1975 cells incubated for 72 hrs by SRB assay; assay type: functional, cell-based; settings: NCI-H1975, 72 h
[5] = Thermodynamic solubility of the compound in 0.1M PBS buffer at pH 7.4 by UV-visible spectrophotometry; assay type: physicochemical; settings: read-out: Therm_solubility
A-431 [6] = experiment: Antitumor activity against human A431 cells xenografted in BALB/c mouse assessed as inhibition of tumor growth at 25 mg/kg, po qd for 14 consecutive days; assay type: functional; settings: A-431, po, read-out: TGI

**Q.** What does the source list for `C=CC(=O)Nc1cccc(-n2c(=O)c(=O)n(C)c3cnc(Nc4ccc(N5CCN(C)CC5)cc4OC)nc32)c1`?
**A.** IC50 [1]: 474 nM; IC50 [2]: 4.7 nM; pKa [3]: 7.3; IC50 (A-431 [4]): > 10000 nM; IC50 (NCI-H1975): 1770 nM; solubility thermodynamic [5]: 392 µg/mL (≈ 722 µM)

**Q.** Which results are given for `C=CC(=O)Nc1cccc(-n2c(=O)c(=O)[nH]c3cnc(Nc4ccc(N5CCN(C)CC5)cc4OC)nc32)c1`?
**A.** IC50 [1]: 2.8 nM; IC50 [2]: 2.5 nM; pKa [3]: 7.8; IC50 (A-431 [4]): > 10000 nM; IC50 (NCI-H1975): > 10000 nM; solubility thermodynamic [5]: 839 µg/mL (≈ 1590 µM)

**Q.** With `C=CC(=O)Nc1cccc(-n2c(=O)c(=O)n(CCC)c3cnc(Nc4ccc(N5CCN(C)CC5)cc4OC)nc32)c1` as the compound, how does the IC50 [1] read?
**A.** 2.2 nM

**Q.** And the IC50 [2]?
**A.** 0.6 nM

**Q.** And the pKa [3]?
**A.** 7.5

**Q.** And the IC50 (A-431 [4])?
**A.** 2140 nM

**Q.** What about the IC50 (NCI-H1975) of the same compound?
**A.** 119 nM

**Q.** What about the solubility thermodynamic [5] of the same compound?
**A.** < 10 µg/mL

**Q.** Which inhibition in vivo at 25 mg/kg (A-431 [6]) does the source give for `CN(C)C/C=C/C(=O)Nc1cc2c(Nc3ccc(F)c(Cl)c3)ncnc2cc1O[C@H]1CCOC1` [AFATINIB] here?
**A.** 94%

**Q.** Which results are given for `C=CC(=O)Nc1cccc(-n2c(=O)c(=O)n(C(C)C)c3cnc(Nc4ccc(N(C)CCN(C)C)cc4OC)nc32)c1`?
**A.** IC50 [1]: 223 nM; IC50 [2]: 17 nM; pKa [3]: 8.9; IC50 (A-431 [4]): 1530 nM; IC50 (NCI-H1975): 440 nM; solubility thermodynamic [5]: 1620 µg/mL (≈ 2830 µM)

**Q.** What does the source list for `C=CC(=O)Nc1cccc(-n2c(=O)c(=O)n(C(C)C)c3cnc(Nc4ccc(N5CCN(C)CC5)c(C)c4)nc32)c1`?
**A.** IC50 [1]: 1.4 nM; IC50 [2]: 1.5 nM; pKa [3]: 8.1; IC50 (A-431 [4]): 309 nM; IC50 (NCI-H1975): 151 nM; solubility thermodynamic [5]: 190 µg/mL (≈ 343 µM)

**Q.** Which IC50 [1] does the source give for `C=CC(=O)Nc1cccc(-n2c(=O)c(=O)n(CC)c3cnc(Nc4ccc(N5CCN(C)CC5)cc4OC)nc32)c1` here?
**A.** 81 nM

**Q.** What about the IC50 [2] of the same compound?
**A.** 1.2 nM

**Q.** What about the pKa [3] of the same compound?
**A.** 7.4

**Q.** What about the IC50 (A-431 [4]) of the same compound?
**A.** 8820 nM

**Q.** And the IC50 (NCI-H1975)?
**A.** 126 nM

**Q.** And the solubility thermodynamic [5]?
**A.** < 10 µg/mL

**Q.** With `C=CC(=O)Nc1cccc(-n2c(=O)c(=O)n(C(C)C)c3cnc(Nc4ccc(OCCN(C)C)cc4OC)nc32)c1` as the compound, how does the IC50 [1] read?
**A.** 68 nM

**Q.** And the IC50 [2]?
**A.** 143 nM

**Q.** What about the pKa [3] of the same compound?
**A.** 8.8

**Q.** What about the IC50 (A-431 [4]) of the same compound?
**A.** 1500 nM

**Q.** What about the IC50 (NCI-H1975) of the same compound?
**A.** 415 nM

**Q.** What about the solubility thermodynamic [5] of the same compound?
**A.** 437 µg/mL (≈ 781 µM)

**Q.** What does the source list for `C=CC(=O)Nc1cccc(-n2c(=O)c(=O)n(C(C)C)c3cnc(Nc4ccc(N5CCN(C)CC5)c(OC)c4)nc32)c1`?
**A.** IC50 [1]: 8.6 nM; IC50 [2]: 1.3 nM; pKa [3]: 8.4; IC50 (A-431 [4]): 669 nM; IC50 (NCI-H1975): 213 nM; solubility thermodynamic [5]: 298 µg/mL (≈ 522 µM)

**Q.** Which IC50 [1] does the source give for `C=CC(=O)Nc1cccc(-n2c(=O)c(=O)n(C(C)C)c3cnc(Nc4ccc(N5CCC(N6CCN(C)CC6)CC5)cc4OC)nc32)c1` here?
**A.** 28 nM

**Q.** What about the IC50 [2] of the same compound?
**A.** 7.8 nM

**Q.** And the pKa [3]?
**A.** 8.8

**Q.** What about the IC50 (A-431 [4]) of the same compound?
**A.** 2260 nM

**Q.** And the IC50 (NCI-H1975)?
**A.** 1190 nM

**Q.** What about the solubility thermodynamic [5] of the same compound?
**A.** 109 µg/mL (≈ 167 µM)
